Measurements published in patent US4012345A, “Des-(Ala^1, Gly^2), Met^11 -SRIF and intermediates” (American Home Products Corporation, priority 1976, dated 1977).
Positions of bridges follow the written chain, without caps; N, C: chain ends. Residues, ends and D or L forms follow the SMILES beside them.

Columns and labels:
[1] = test system: somatotropin; details: Brazeau et al., Science, 179 pp 77-79 (1973); cited from earlier work
[2] = test system: growth hormone; assay: Arginine-stimulated plasma growth hormone in Nembutal-anesthetized rats (radioimmunoassay); assay type: in vivo, albino male rats; details: *p < 0.01
Procedure: (§1) The in vivo activity of the compounds of this invention was established by subjecting des-(Ala^1, Gly2), Met^11 -Somatostatin, as a representative compound of the invention, to the following standard test procedure: Three groups of ten albino male rats were arranged to provide a control group, a group for observation of Somatostatin activity as the standard and a group for the study of the test compound des-(Ala^1, Gly^2), Met^11 -Somatostatin. Nembutal (50 mg/kg) was injected intraperitoneally into each rat. Fifteen minutes later a subcutaneous injection of the test compound, somatostatin and physiological saline (control) was administered separately to each of the three groups of rats. Ten minutes later 0.5 milliliters of arginine (300 mg/ml, pH 7.2) was injected into the rats heart. The rats were decapitated five minutes later and their blood was collected in Trasylol -EDTA. Aliquot samples were radioimmunoassayed for growth hormone and insulin.

[3] = test system: insulin; assay: Arginine-stimulated plasma insulin in Nembutal-anesthetized rats (radioimmunoassay); assay type: in vivo, albino male rats
Procedure: as §1

| Compound | inhibition of secretion of somatotropin (growth hormone) [1] | GH ([2]; Experiment 2, dose 100 μg/kg subcutaneous, control 176 ± 29) | GH ([2]; Experiment 3, dose 1500 μg/kg subcutaneous, control 123 ± 16) | Insulin ([3]; Experiment 1, dose 400 μg/kg subcutaneous, control 172 ± 11, *p < 0.01) | Insulin ([3]; Experiment 3, dose 1500 μg/kg subcutaneous, control 206 ± 19) |
| --- | --- | --- | --- | --- | --- |
| H-Ala-Gly-Cys-Lys-Asn-Phe-Phe-Trp-Lys-Thr-Phe-Thr-Ser-Cys-OH (H-AGCKNFFWKTFTSC-OH; ends and bridges not checked) [linear form of somatostatin] | same biological activity as somatostatin obtained from a natural source |  |  |  |  |
| CSCC[C@@H]1NC(=O)[C@H]([C@@H](C)O)NC(=O)[C@H](CCCCN)NC(=O)[C@H](Cc2c[nH]c3ccccc23)NC(=O)[C@H](Cc2ccccc2)NC(=O)[C@H](Cc2ccccc2)NC(=O)[C@H](CC(N)=O)NC(=O)[C@H](CCCCN)NC(=O)[C@@H](N)CSSC[C@@H](C(=O)O)NC(=O)[C@H](CO)NC(=O)[C@H]([C@@H](C)O)NC1=O [Example 3, L-Cysteinyl-L-lysyl-L-asparaginyl-L-phenylalanyl-L-phenylalanyl-L-tryptophyl-L-lysyl-L-threonyl-L-methionyl-L-threonyl-L-seryl-L-cysteine (1-12) disulfide] (H-CKNFFWKTMTSC-OH; disulfide 1-12) |  | 72 ± 12 ng/mL | 42 ± 10 ng/mL | 143 ± 13 μU/ml | 128 ± 13 μU/ml |
